This is an account of results in patent EP4122463A1, “DRUG IN THE FORM OF A COMPLEX OF 3,3'-DIINDOLYLMETHANE WITH Beta-CYCLODEXTRIN” (Kiselev, Vsevolod Ivanovich, priority 2020, dated 2021).

Data set [1] in a line: Clinical comparison of effectiveness of water-soluble complexes and crystalline DIM in equal doses. The format is in vivo. The note with it: all studied groups of patients. An excerpt:
(§1) In clinical studies, effectiveness of a water-soluble complex based on cyclodextrins and crystalline 3,3'-diindolylmethane in equal doses was compared. […]

The conditions of data set [2]: cited from earlier work.
Data set [3] can be described thus: Concentration of 3,3'-diindolylmethane in the blood plasma of patients. It counts as in vivo. To be noted: DIM dosage 100 mg.
Text: as §1

Data set [4] in a line: Solubility of 3,3'-diindolylmethane as a function of concentration of various cyclodextrins. The format is physicochemical. To be noted: solutions of α-, β- and γ-cyclodextrin, figure 2. An excerpt:
Solubility of 3,3'-diindolylmethane was investigated as a function of concentration of various cyclodextrins. The following were used in the experiments: • α-cyclodextrin (αCD); • β-cyclodextrin (βCD); • γ-cyclodextrin (γCD).

On to `c1ccc2c(Cc3c[nH]c4ccccc34)c[nH]c2c1` [DIM crystalline, 3,3'-diindolylmethane], for which the “effectiveness (dynamics in patients)” value in data set [1] is on record as “absence of such”. In addition, in data set [2], the “Solubility of 3,3'-diindolylmethane in DMSO” value is 18-20%. Also, the “The concentration of DIM in plasma” value in data set [3] is on record as “less than 30 ng / ml”. The “maximum solubility of 3,3'-diindolylmethane” value in data set [4] is on record as “maximum solubility of 3,3'-diindolylmethane is achieved in combination with β-cyclodextrin (βCD)”.
